Patent US20240246960A1 (adMare Therapeutics Society, priority 2021, published 2024)

Legend:
[1] = Hepatocyte stability assay, human hepatocytes; format: in vitro ADME; conditions: for hepatocyte CLint at 1 uM: both sexes, human, cryopreserved hepatocytes, pH 7.3, 0.7 million cells per mL, 1 uM compound
Method: (§1) Cryopreserved mouse hepatocytes were obtained from a pool of 10 or more male CD-1 mice. Cryopreserved human hepatocytes were obtained from a pool of 10 or more donors of mixed gender. Final hepatocyte density was 0.7 million viable cells per mL and test compound concentration was 1 uM with a maximum of 0.01% DMSO. Cryopreserved hepatocytes were thawed, washed, and resuspended in Krebs-Heinslet buffer (pH 7.3). The reaction was initiated by adding the test compound into cell suspension and incubated for 0, […], 1, 1.5, and 2 h, respectively, at 37° C./5% CO2. The reaction was stopped by adding acetonitrile into the incubation mixture. Samples were then mixed, transferred completely to another 96-well plate, and centrifuged. Supernatants were used for HPLC-MS/MS analysis. […] Peak areas corresponding to the test compound were recorded.

DNA-PK = molecular target: T1, DNA-PK (Homo sapiens, UniProt P78527); test: DNA-PK Assay for Biochemical Enzymatic Inhibition (ADP Glo Kinase assay); conditions: Table 1
T1 construct: purchased Invitrogen PR9107A
Summary of the method: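 Human DNA-PK (25 ng) preincubated 15 min with compounds (ten three-fold dilutions) in HEPES pH 7.5, MgCl2, KCl, calf thymus DNA buffer, then substrate 434.4 μM and ATP 64.4 μM (final) for 60 min at room temperature. ADP-Glo luminescence; percent inhibition fitted by four-parameter regression for IC50.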

[2] = Hepatocyte stability assay, mouse hepatocytes; format: in vitro ADME; conditions: for hepatocyte CLint at 1 uM: male, CD-1, mouse, cryopreserved hepatocytes, pH 7.3, 0.7 million cells per mL, 1 uM compound
Method: as §1

[3] = Microsomal stability assay, mouse liver microsomes; conditions: for microsomal CLint at 0.1 uM: male, CD-1, mouse, liver microsomes, pH 7.4, Microsomal Stability Mouse Clint, 0.1 mg/mL microsomes, 0.1 uM compound

Row | Hepatocyte Stability (human) % rem. 120 min [1] | hepatocyte CLint at 1 uM [1] [µL/min/1e6 cells] | IC50 (DNA-PK) [nM] | Hepatocyte Stability (mouse) % rem. 120 min [2] | hepatocyte CLint at 1 uM [2] [µL/min/1e6 cells] | Microsomal Stability (mouse) % rem. 60 min [3] | microsomal CLint at 0.1 uM [3] [µL/min/mg] | SMILES
1 | G (% remaining = 50-75%) | < 8.2 | 0.5 to 1 | G (% remaining = 50-75%) | < 8.2 | – | – | FC(F)c1ccc2c(O[C@H]3CC[C@@H](Nc4ncccn4)CC3)nc(N3CCOCC3)cc2n1 [Compound 21, N-((1s,4s)-4-((2-(Difluoromethyl)-7-morpholino-1,6-naphthyridin-5-yl)oxy)cyclohexyl)pyrimidin-2-amine]
2 | E (% remaining = 0-25%) | > 8.2 | < 0.5 | F (% remaining = 25-50%) | > 8.2 | – | – | FC(F)c1ccnc2cc(N3CCOCC3)nc(O[C@H]3CC[C@@H](Nc4ncccn4)CC3)c12 [Compound 22, N-((1s,4s)-4-((4-(Difluoromethyl)-7-morpholino-1,6-naphthyridin-5-yl)oxy)cyclohexyl)pyrimidin-2-amine]
3 | – | – | 0.5 to 1 | E (% remaining = 0-25%) | > 8.2 | E (% remaining = 0-25%) | > 116 | c1cnc2cc(N3CCOCC3)nc(O[C@H]3CC[C@@H](Nc4cncnc4)CC3)c2c1 [Compound 28, N-((1s,4s)-4-((7-morpholino-1,6-naphthyridin-5-yl)oxy)cyclohexyl)pyrimidin-5-amine]
4 | F (% remaining = 25-50%) | > 8.2 | < 0.5 | H (% remaining = 75-100%) | < 8.2 | – | – | Cn1cnc(N[C@H]2CC[C@@H](Oc3nc(N4CCOCC4)cc4ncccc34)CC2)n1 [Compound 31, 1-methyl-N-((1s,4s)-4-((7-morpholino-1,6-naphthyridin-5-yl)oxy)cyclohexyl)-1H-1,2,4-triazol-3-amine]
5 | E (% remaining = 0-25%) | > 8.2 | 0.5 to 1 | F (% remaining = 25-50%) | > 8.2 | – | – | COc1ccc(N[C@H]2CC[C@@H](Oc3nc(N4CCOCC4)cc4ncccc34)CC2)nn1 [Compound 38, 6-methoxy-N-((1s,4s)-4-((7-morpholino-1,6-naphthyridin-5-yl)oxy)cyclohexyl)pyridazin-3-amine]
6 | G (% remaining = 50-75%) | < 8.2 | < 0.5 | F (% remaining = 25-50%) | > 8.2 | – | – | Nc1cnc(N[C@H]2CC[C@@H](Oc3nc(N4CCOCC4)cc4ncccc34)CC2)nc1 [Compound 43, N2-((1s,4s)-4-((7-morpholino-1,6-naphthyridin-5-yl)oxy)cyclohexyl)pyrimidine-2,5-diamine]
7 | H (% remaining = 75-100%) | < 8.2 | < 0.5 | G (% remaining = 50-75%) | < 8.2 | – | – | CS(=O)(=O)Nc1cnc(N[C@H]2CC[C@@H](Oc3nc(N4CCOCC4)cc4ncccc34)CC2)nc1 [Compound 44, N-(2-(((1s,4s)-4-((7-morpholino-1,6-naphthyridin-5-yl)oxy)cyclohexyl)amino)pyrimidin-5-yl)methanesulfonamide]
8 | F (% remaining = 25-50%) | < 8.2 | 0.5 to 1 | F (% remaining = 25-50%) | > 8.2 | – | – | Oc1cnc(N[C@H]2CC[C@@H](Oc3nc(N4CCOCC4)cc4ncccc34)CC2)nc1 [Compound 45, 2-(((1s,4s)-4-((7-morpholino-1,6-naphthyridin-5-yl)oxy)cyclohexyl)amino)pyrimidin-5-ol]
9 | G (% remaining = 50-75%) | < 8.2 | 0.5 to 1 | G (% remaining = 50-75%) | < 8.2 | – | – | NS(=O)(=O)c1cnc(N[C@H]2CC[C@@H](Oc3nc(N4CCOCC4)cc4ncccc34)CC2)nc1 [Compound 46, 2-(((1s,4s)-4-((7-morpholino-1,6-naphthyridin-5-yl)oxy)cyclohexyl)amino)pyrimidine-5-sulfonamide]
10 | F (% remaining = 25-50%) | < 8.2 | < 0.5 | F (% remaining = 25-50%) | > 8.2 | – | – | Cc1ccnc(N[C@H]2CC[C@@H](Oc3nc(N4CCOCC4)cc4ncccc34)CC2)n1 [Compound 48, 4-methyl-N-((1s,4s)-4-((7-morpholino-1,6-naphthyridin-5-yl)oxy)cyclohexyl)pyrimidin-2-amine]
11 | F (% remaining = 25-50%) | > 8.2 | 0.5 to 1 | F (% remaining = 25-50%) | > 8.2 | – | – | COc1ccnc(N[C@H]2CC[C@@H](Oc3nc(N4CCOCC4)cc4ncccc34)CC2)n1 [Compound 49, 4-methoxy-N-((1s,4s)-4-((7-morpholino-1,6-naphthyridin-5-yl)oxy)cyclohexyl)pyrimidin-2-amine]
12 | G (% remaining = 50-75%) | < 8.2 | < 0.5 | H (% remaining = 75-100%) | < 8.2 | – | – | NC(=O)c1cnc(N[C@H]2CC[C@@H](Oc3nc(N4CCOCC4)cc4ncccc34)CC2)nc1 [Compound 52, 2-(((1s,4s)-4-((7-morpholino-1,6-naphthyridin-5-yl)oxy)cyclohexyl)amino)pyrimidine-5-carboxamide]
13 | G (% remaining = 50-75%) | < 8.2 | 0.5 to 1 | H (% remaining = 75-100%) | < 8.2 | – | – | CN(C)C(=O)c1cnc(N[C@H]2CC[C@@H](Oc3nc(N4CCOCC4)cc4ncccc34)CC2)nc1 [Compound 53, N,N-dimethyl-2-(((1s,4s)-4-((7-morpholino-1,6-naphthyridin-5-yl)oxy)cyclohexyl)amino)pyrimidine-5-carboxamide]
14 | G (% remaining = 50-75%) | < 8.2 | < 0.5 | F (% remaining = 25-50%) | > 8.2 | – | – | c1cnc2cc(N3CCOCC3)nc(O[C@H]3CC[C@@H](Nc4ncnc5ccoc45)CC3)c2c1 [Compound 80a, N-((1s,4s)-4-((7-morpholino-1,6-naphthyridin-5-yl)oxy)cyclohexyl)furo[3,2-d]pyrimidin-4-amine]
15 | G (% remaining = 50-75%) | < 8.2 | < 0.5 | F (% remaining = 25-50%) | > 8.2 | – | – | Cc1nc(N[C@H]2CC[C@@H](Oc3nc(N4CCOCC4)cc4ncccc34)CC2)c2occc2n1 [Compound 81, 2-methyl-N-((1s,4s)-4-((7-morpholino-1,6-naphthyridin-5-yl)oxy)cyclohexyl)furo[3,2-d]pyrimidin-4-amine]
16 | F (% remaining = 25-50%) | > 8.2 | < 0.5 | E (% remaining = 0-25%) | > 8.2 | – | – | c1cnc2cc(N3CCOCC3)nc(O[C@H]3CC[C@@H](Nc4ncnc5occc45)CC3)c2c1 [Compound 82, N-((1s,4s)-4-((7-morpholino-1,6-naphthyridin-5-yl)oxy)cyclohexyl)furo[2,3-d]pyrimidin-4-amine]
17 | – | – | < 0.5 | F (% remaining = 25-50%) | > 8.2 | F (% remaining = 25-50%) | > 116 | O=C(N[C@H]1CC[C@@H](Oc2nc(N3CCOCC3)cc3ncccc23)CC1)c1cccnc1 [Compound 115, N-((1s,4s)-4-((7-morpholino-1,6-naphthyridin-5-yl)oxy)cyclohexyl)nicotinamide]
18 | – | – | 0.5 to 1 | E (% remaining = 0-25%) | > 8.2 | F (% remaining = 25-50%) | > 116 | O=C(N[C@H]1CC[C@@H](Oc2nc(N3CCOCC3)cc3ncccc23)CC1)c1ccncn1 [Compound 118, N-((1s,4s)-4-((7-morpholino-1,6-naphthyridin-5-yl)oxy)cyclohexyl)pyrimidine-4-carboxamide]
19 | – | – | < 0.5 | F (% remaining = 25-50%) | > 8.2 | E (% remaining = 0-25%) | > 116 | O=C(N[C@H]1CC[C@@H](Oc2nc(N3CCOCC3)cc3ncccc23)CC1)c1nccs1 [Compound 135, N-((1s,4s)-4-((7-morpholino-1,6-naphthyridin-5-yl)oxy)cyclohexyl)thiazole-2-carboxamide]
